Measurements from ChEMBL document CHEMBL5029144, “Positional Isomeric Effects on the Optical Properties, Multivalent Glycosidase Inhibition Effect, and Hypoglycemic Effect of Perylene Bisimide-deoxynojirimycin Conjugates” (J Med Chem, 2021).

Experiments:
[1] = Inhibition of Helix pomatia beta-mannosidase
[2] = system: Mus musculus; assay: Hypoglycemic effect in maltose treated C57BL-6J mouse assessed as reduction in postprandial blood glucose level at 2 mg/kg, po measured after 30 mins; assay type: functional; parameters: scale not given: the % may be the effect or the level left; details: 0.5 h
[3] = Inhibition of almond beta-glucosidase; parameters: species or system Prunus dulcis
[4] = Inhibition of Escherichia coli beta-galactosidase
[5] = system: Mus musculus; assay: Hypoglycemic effect in maltose treated mouse C57BL-6J assessed as reduction in postprandial blood glucose level at 2 mg/kg, po measured after 15 mins; assay type: functional; parameters: scale not given: the % may be the effect or the level left; details: 0.25 h
[6] = Inhibition of Aspergillus niger alpha-glucosidase
[7] = system: Mus musculus; assay: Hypoglycemic effect in maltose treated mouse C57BL-6J assessed as reduction in postprandial blood glucose level at 1 mg/kg, po measured after 15 mins; assay type: functional; parameters: scale not given: the % may be the effect or the level left; details: 0.25 h
[8] = Inhibition of green coffee beans alpha-galactosidase; parameters: species or system Coffea arabica
[9] = biological target: T1, Alpha-mannosidase (Canavalia ensiformis, UniProt C0HJB3); assay: Inhibition of jack bean alpha-mannosidase
T1 sequence (C0HJB3 whole entry): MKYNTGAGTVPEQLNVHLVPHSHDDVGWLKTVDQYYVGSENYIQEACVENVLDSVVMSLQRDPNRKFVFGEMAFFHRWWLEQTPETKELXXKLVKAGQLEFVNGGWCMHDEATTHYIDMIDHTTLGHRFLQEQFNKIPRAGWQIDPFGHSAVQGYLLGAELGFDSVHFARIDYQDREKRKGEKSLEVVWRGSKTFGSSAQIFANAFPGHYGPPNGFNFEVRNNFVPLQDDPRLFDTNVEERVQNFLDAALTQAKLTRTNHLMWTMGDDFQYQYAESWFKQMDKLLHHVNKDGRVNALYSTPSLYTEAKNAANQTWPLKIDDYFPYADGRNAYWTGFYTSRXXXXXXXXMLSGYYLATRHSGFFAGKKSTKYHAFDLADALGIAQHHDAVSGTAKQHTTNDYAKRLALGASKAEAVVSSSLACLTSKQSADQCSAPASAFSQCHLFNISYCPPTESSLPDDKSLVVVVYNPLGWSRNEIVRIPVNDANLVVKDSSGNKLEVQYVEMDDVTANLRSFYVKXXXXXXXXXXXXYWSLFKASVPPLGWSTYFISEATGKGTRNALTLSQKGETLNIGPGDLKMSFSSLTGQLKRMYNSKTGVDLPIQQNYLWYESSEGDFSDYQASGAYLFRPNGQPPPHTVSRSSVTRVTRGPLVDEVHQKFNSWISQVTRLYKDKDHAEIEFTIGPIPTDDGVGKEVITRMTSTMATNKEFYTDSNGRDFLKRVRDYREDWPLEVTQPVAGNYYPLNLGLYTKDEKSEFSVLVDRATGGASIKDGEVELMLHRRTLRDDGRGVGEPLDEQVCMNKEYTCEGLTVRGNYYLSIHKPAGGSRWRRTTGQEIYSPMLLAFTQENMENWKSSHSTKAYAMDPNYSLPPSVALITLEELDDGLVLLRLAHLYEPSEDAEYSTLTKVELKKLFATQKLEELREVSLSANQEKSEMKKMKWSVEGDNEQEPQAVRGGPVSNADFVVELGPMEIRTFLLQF

[10] = biological target: T2, Alpha-mannosidase (Canavalia ensiformis) (UniProt C0HJB3); assay: Potency index, ratio of DNJ-1 Kd to test compound Kd for inhibition of Jack bean alpha-mannosidase
T2 sequence (whole entry): T1 sequence (C0HJB3 whole entry)

[11] = Toxicity in C57BL-6J mouse assessed as liver pathological change at 2 mg/kg, po measured after 10 days by hematoxylin and eosin staining analysis; assay type: organism-based; details: in vivo, 240 h, time 10 day
[12] = system: Mus musculus; assay: Hypoglycemic effect in maltose treated po dosed C57BL-6J mouse assessed as reduction in postprandial blood glucose level measured upto 180 mins; assay type: functional, organism-based; details: time min <=180
[13] = Toxicity in C57BL-6J mouse assessed as increase in body weight at 2 mg/kg, po measured after 10 days; assay type: organism-based; details: in vivo, 240 h, time 10 day
[14] = Inhibition of Green coffee beans alpha-galactosidase by Lineweaver-Burk plot; parameters: species or system Coffea arabica
[15] = Toxicity in C57BL-6J mouse assessed as increase in body weight at 2 mg/kg, po measured upto 30 days; assay type: organism-based; details: in vivo, 720 h, time <=30 day
[16] = Toxicity in C57BL-6J mouse assessed as spleen pathological change at 2 mg/kg, po measured after 10 days by hematoxylin and eosin staining analysis; assay type: organism-based; details: in vivo, 240 h, time 10 day
[17] = Toxicity in C57BL-6J mouse assessed as heart pathological change at 2 mg/kg, po measured after 10 days by hematoxylin and eosin staining analysis; assay type: organism-based; details: in vivo, 240 h, time 10 day
[18] = system: Coffea arabica; assay: Potency index, ratio of miglitol Kd to test compound Kd for inhibition of Green coffee beans alpha-galactosidase
[19] = biological target: T1, Alpha-mannosidase; assay: Inhibition of Jack bean alpha-mannosidase by Lineweaver-Burk plot
[20] = Stability of the compound in pH 2 by UV-vis spectroscopy; assay type: physicochemical; details: buffer
[21] = Toxicity in C57BL-6J mouse assessed as lung pathological change at 2 mg/kg, po measured after 10 days by hematoxylin and eosin staining analysis; assay type: organism-based; details: in vivo, 240 h, time 10 day
[22] = Stability of the compound in pH 7 by UV-vis spectroscopy; assay type: physicochemical; details: buffer
[23] = Toxicity in C57BL-6J mouse assessed as kidney pathological change at 2 mg/kg, po measured after 10 days by hematoxylin and eosin staining analysis; assay type: organism-based; details: in vivo, 240 h, time 10 day
[24] = system: Aspergillus niger; assay: Potency index, ratio of miglitol Kd to test compound Kd for inhibition of Aspergillus niger alpha-glucosidase
[25] = Inhibition of Aspergillus niger alpha-glucosidase by Lineweaver-Burk plot
[26] = organism: Homo sapiens; assay: (§1) Inhibition of mammalian Alpha-glucosidase (unknown origin) using PNPG as substrate pretreated for 20 mins followed by substrate addition measured after 26 mins
[27] = as §1
[28] = system: Aspergillus niger; assay: Potency index, ratio of DNJ-1 Kd to test compound Kd for inhibition of Aspergillus niger alpha-glucosidase
[29] = system: Mus musculus; assay: Hypoglycemic effect in maltose treated mouse C57BL-6J assessed as reduction in postprandial blood glucose level at 0.5 mg/kg, po measured after 15 mins; assay type: functional; parameters: scale not given: the % may be the effect or the level left; details: 0.25 h
[30] = biological target: T2, Alpha-mannosidase (Canavalia ensiformis); assay: Potency index, ratio of miglitol Kd to test compound Kd for inhibition of Jack bean alpha-mannosidase
[31] = system: Mus musculus; assay: Hypoglycemic effect in maltose treated mouse C57BL-6J assessed as reduction in postprandial blood glucose level at 0.5 mg/kg, po measured after 30 mins; assay type: functional; parameters: scale not given: the % may be the effect or the level left
[32] = system: Mus musculus; assay: Hypoglycemic effect in maltose treated mouse C57BL-6J assessed as reduction in postprandial blood glucose level at 1 mg/kg, po measured after 30 mins; assay type: functional; parameters: scale not given: the % may be the effect or the level left; details: 0.5 h

| SMILES | Kd [1] | Activity [2] | Kd [3] | Kd [4] | Activity [5] | Kd [6] | Activity [7] | Kd [8] | Kd [9] | Ratio [10] | Activity [11] | Activity [12] | Activity [13] | Ki [14] | Activity [15] | Activity [16] | Activity [17] | Ratio [18] | Ki [19] | Stability [20] | also measured |
| --- | --- | --- | --- | --- | --- | --- | --- | --- | --- | --- | --- | --- | --- | --- | --- | --- | --- | --- | --- | --- | --- |
| OCCN1C[C@H](O)[C@@H](O)[C@H](O)[C@H]1CO [MIGLITOL] | Not Active | 36.6% | Not Active | Not Active | 40.4% | 20.6 µM | 27.3% | Not Active | – | – | – | – | – | – | – | – | – | – | – | – | – |
| OCc1cn(CCCN2C[C@H](O)[C@@H](O)[C@H](O)[C@H]2CO)nn1 | Not Active | – | Not Active | Not Active | – | 61.6 µM | – | Not Active | 277 µM | – | – | – | – | – | – | – | – | – | – | – | – |
| O=C1c2cc(Cl)c3c4c(Cl)cc5c6c(cc(Oc7ccc(OCc8cn(CCCN9C[C@H](O)[C@@H](O)[C@H](O)[C@H]9CO)nn8)cc7)c(c7c(Oc8ccc(OCc9cn(CCCN%10C[C@H](O)[C@@H](O)[C@H](O)[C@H]%10CO)nn9)cc8)cc(c2c37)C(=O)N1Cc1cn(CCCN2C[C@H](O)[C@@H](O)[C@H](O)[C@H]2CO)nn1)c64)C(=O)N(Cc1cn(CCCN2C[C@H](O)[C@@H](O)[C@H](O)[C@H]2CO)nn1)C5=O | Not Active | – | Not Active | Not Active | 22.2% | 14.7 µM | 11.3% | – | 0.017 µM | 16300 | Non-Toxic | Dose-Dependent Effect | Non-Toxic | 1.03 µM | Toxic | Non-Toxic | Non-Toxic | 7.2 | 0.017 µM | Stable | Activity [21]: Non-Toxic; Stability [22]: Stable; Activity [23]: Non-Toxic; Ratio [24]: 1.4; Ki [25]: 14.7 µM; inhibition [26]: Dose-Dependent Effect; IC50 [27]: 14.4 µM; Ratio [28]: 4.2; Kd ([8]; read-out: Kd): 1.93 µM; Activity [29]: 4%; Ratio [30]: 6180 |
| O=C1c2cc(Cl)c3c4c(Oc5ccc(OCc6cn(CCCN7C[C@H](O)[C@@H](O)[C@H](O)[C@H]7CO)nn6)cc5)cc5c6c(cc(Oc7ccc(OCc8cn(CCCN9C[C@H](O)[C@@H](O)[C@H](O)[C@H]9CO)nn8)cc7)c(c7c(Cl)cc(c2c37)C(=O)N1Cc1cn(CCCN2C[C@H](O)[C@@H](O)[C@H](O)[C@H]2CO)nn1)c64)C(=O)N(Cc1cn(CCCN2C[C@H](O)[C@@H](O)[C@H](O)[C@H]2CO)nn1)C5=O | Not Active | 37.4% | Not Active | Not Active | 41.3% | 13.1 µM | 29.2% | – | 0.12 µM | 2310 | Non-Toxic | Dose-Dependent Effect | Non-Toxic | 1.43 µM | Toxic | Non-Toxic | Non-Toxic | 9.7 | 0.12 µM | Stable | Activity [31]: 15.2%; Activity [21]: Non-Toxic; Stability [22]: Stable; Activity [23]: Non-Toxic; Ratio [24]: 1.5; Ki [25]: 13.1 µM; inhibition [26]: Dose-Dependent Effect; IC50 [27]: 11.6 µM; Ratio [28]: 4.7; Kd ([8]; read-out: Kd): 1.43 µM; Activity [29]: 22.4%; Activity [32]: 20.8%; Ratio [30]: 876 |
